These results are taken from patent US8008299B2, “Urotensin II receptor antagonists” (Janssen Pharmaceutica, N.V., priority 2007, dated 2011).

Read-outs that look alike come from different tables or passages of the source. Where only a bound is given, the exact number is not on record here.

Test [1] concerns the target T1, rat GPR14 (U-II receptor) (Rattus norvegicus, UniProt P49684).
T1 construct: expressed in transfected cells
T1 sequence (P49684 1-386): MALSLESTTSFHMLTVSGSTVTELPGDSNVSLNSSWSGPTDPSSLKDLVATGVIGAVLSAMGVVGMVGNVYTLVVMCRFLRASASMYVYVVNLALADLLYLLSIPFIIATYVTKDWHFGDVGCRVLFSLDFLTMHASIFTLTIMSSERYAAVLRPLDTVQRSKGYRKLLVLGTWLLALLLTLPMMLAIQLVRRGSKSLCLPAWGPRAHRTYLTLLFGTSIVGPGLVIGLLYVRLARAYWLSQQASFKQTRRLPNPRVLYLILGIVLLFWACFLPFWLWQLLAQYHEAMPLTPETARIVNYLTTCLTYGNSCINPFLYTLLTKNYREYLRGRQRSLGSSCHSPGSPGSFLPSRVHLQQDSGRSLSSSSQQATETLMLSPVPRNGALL
In words: Rat UII Calcium Mobilization FLIPR Assay. Type of test: cell-based. The note with it: CHO cells transfected with rat GPR14; antagonist activity after 5 min incubation vs agonist (Ac)-CFWK(2-NaI)C-NH2 at 1 nM. Summed up: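 Fluorescent calcium signals were recorded at room temperature (23° C) by FLIPR. Stable rat U-II receptor CHO lines had been dye-loaded for 1 h at 37° C in pH 7.4 HBSS containing 20 mM HEPES, 0.1% BSA and 2.5 mM probenecid.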
(In general: A change in cytosolic calcium serves as a functional read-out for many receptors and channels.)

The target of test [2] is T2, Human UII (U-II receptor) in 6D9 human rhabdomyosarcoma cells (Homo sapiens, UniProt Q9UKP6).
T2 construct: 6D9: isolated by dilution subcloning of RMS13 cells, ATCC® Number: CRL-2061; host or cells: 6D9 human rhabdomyosarcoma cells (subclone of RMS13)
T2 sequence (Q9UKP6 1-389): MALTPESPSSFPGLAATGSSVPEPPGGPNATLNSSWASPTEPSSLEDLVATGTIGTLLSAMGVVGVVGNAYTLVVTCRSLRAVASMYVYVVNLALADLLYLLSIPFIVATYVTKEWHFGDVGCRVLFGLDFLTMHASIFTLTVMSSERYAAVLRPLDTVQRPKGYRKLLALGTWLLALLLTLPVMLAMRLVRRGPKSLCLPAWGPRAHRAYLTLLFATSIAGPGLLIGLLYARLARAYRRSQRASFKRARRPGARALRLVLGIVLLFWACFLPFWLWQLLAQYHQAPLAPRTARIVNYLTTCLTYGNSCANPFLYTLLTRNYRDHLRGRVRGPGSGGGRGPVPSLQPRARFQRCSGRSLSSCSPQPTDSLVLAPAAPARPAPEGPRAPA
In words: Human UII Calcium Mobilization Assay. Type of test: cell-based.

Test [3] deals with T3, UT receptors in HSMM (Human Skeletal Muscle Myoblasts) (Homo sapiens, UniProt Q9UKP6).
T3 sequence (Q9UKP6 1-389): T2 sequence (Q9UKP6 1-389)
In words: Human Radioligand Binding Assay ((^125I)-U-II binding to intact HSMM).

The mark [4] stands for this setting: 6D9 human rhabdomyosarcoma cells, FLIPR TETRA, average, read-out: Human UII Ca+ Mobilization Average IC50.
Setting [5] is: read-out: Human UII Average Binding Ki, intact HSMM, 0.150 nM (^125I)-U-II, 3 h, 25° C.

With `COc1ccc([C@@H](CCCOc2ccccc2)N2Cc3c(cccc3N3CCNCC3)C2=O)cc1OC` [Cpd 37, 2-[(1R)-1-(3,4-dimethoxy-phenyl)-4-phenoxy-butyl]-4-piperazin-1-yl-2,3-dihydro-isoindol-1-one], the 50% inhibitory concentration (IC50) in test [1] was 14 nM; in test [2] (setting [4]), 448 nM. In addition, the Ki in test [3] worked out at 50 nM.

In the case of `CCN1CCN(c2cccc3c2CN([C@H](CCCN(C)Cc2cccc(F)c2)c2ccc(OC)c(OC)c2)C3=O)CC1` [Cpd 98, 2-{(1R)-1-(3,4-dimethoxy-phenyl)-4-[(3-fluoro-benzyl)-methyl-amino]-butyl}-4-(4-ethyl-piperazin-1-yl)-2,3-dihydro-isoindol-1-one], the figures for the IC50 in test [1] and in test [2] (setting [4]) were 4 nM and 105 nM, respectively. This compound displayed a Ki in test [3] of 59 nM.

For the compound `CCN1CCN(c2cccc3c2CN([C@H](CCCNS(=O)(=O)c2cccs2)c2ccc(OC)c(OC)c2)C3=O)CC1` [Cpd 84, thiophene-2-sulfonic acid {(4R)-4-(3,4-dimethoxy-phenyl)-4-[4-(4-ethyl-piperazin-1-yl)-1-oxo-1,3-dihydro-isoindol-2-yl]-butyl}-amide], the IC50 stood at 1 nM in test [1] and 8 nM in test [2] (setting [4]). In addition, the Ki in test [3] (setting [5]) was 4 nM.

In the case of `COc1ccc([C@@H](CCCOc2ccccc2)N2Cc3c(cccc3N3CCN(C4CC4)CC3)C2=O)cc1OC` [Cpd 28, 4-(4-cyclopropyl-piperazin-1-yl)-2-[(1R)-1-(3,4-dimethoxy-phenyl)-4-phenoxy-butyl]-2,3-dihydro-isoindol-1-one], the IC50 in test [1] is 25 nM; in test [2] (setting [4]), 1210 nM. This compound yielded a Ki in test [3] of 154 nM.

For `CCN1CCN(c2cccc3c2CN([C@H](CCCOCc2ccccc2)c2ccc(OC)c(OC)c2)C3=O)CC1` [Cpd 74, 2-[(1R)-4-benzyloxy-1-(3,4-dimethoxy-phenyl)-butyl]-4-(4-ethyl-piperazin-1-yl)-2,3-dihydro-isoindol-1-one], the IC50 was 5 nM in test [1] and 145 nM in test [2] (setting [4]). The inhibition constant Ki in test [3] was 19 nM.

For the compound `CCN1CCN(c2cccc3c2CN(C(CC2CCN(Cc4ccccc4)CC2)c2ccc(OC)c(OC)c2)C3=O)CC1` (stereo not drawn) [Cpd 13, 2-[2-(1-benzyl-piperidin-4-yl)-1-(3,4-dimethoxy-phenyl)-ethyl]-4-(4-ethyl-piperazin-1-yl)-2,3-dihydro-isoindol-1-one], the values for the IC50 in test [1] and in test [2] (setting [4]) were 167 nM and 1980 nM, respectively. Also, the Ki in test [3] is above 300 nM.

Turning to `COc1ccc([C@@H](CCCNC(=O)c2cnoc2C)N2Cc3c(cccc3N3CCN(C(C)c4ccccc4)CC3)C2=O)cc1OC` (stereo partly drawn) [Cpd 85, 5-methyl-isoxazole-4-carboxylic acid ((4R)-4-(3,4-dimethoxy-phenyl)-4-{1-oxo-4-[4-(1-phenyl-ethyl)-piperazin-1-yl]-1,3-dihydro-isoindol-2-yl}-butyl)-amide], the values for the IC50 in test [1] and in test [2] were 6 nM and 325 nM, respectively. The same compound yielded a Ki in test [3] of 15 nM.

Consider `COc1ccc([C@@H](CCCN(C)S(=O)(=O)c2cccs2)N2Cc3c(cccc3N3CCN(C(C)C)CC3)C2=O)cc1OC` [Cpd 8, thiophene-2-sulfonic acid {(4R)-4-(3,4-dimethoxy-phenyl)-4-[4-(4-isopropyl-piperazin-1-yl)-1-oxo-1,3-dihydro-isoindol-2-yl]-butyl}-methyl-amide], for which the IC50 in test [1] was determined as 2 nM; in test [2] (setting [4]), 177 nM. Moreover, the Ki in test [3] (setting [5]) came to 11 nM.

Take `CCN1CCN(c2cccc3c2CN([C@H](CCCNCC(C)(C)C)c2ccc(OC)c(OC)c2)C3=O)CC1` [Cpd 75, 2-[(1R)-1-(3,4-dimethoxy-phenyl)-4-(2,2-dimethyl-propylamino)-butyl]-4-(4-ethyl-piperazin-1-yl)-2,3-dihydro-isoindol-1-one]: the values for the IC50 in test [1] and in test [2] (setting [4]) were 37 nM and 2590 nM, respectively. In addition, the inhibitory constant (Ki) in test [3] turned out to be 242 nM.

In the case of `CCN1CCN(c2cccc3c2CN([C@H](CCCNC(=O)c2cn(C)cn2)c2ccc(OC)c(OC)c2)C3=O)CC1` [Cpd 57, 1-methyl-1H-imidazole-4-carboxylic acid {(4R)-4-(3,4-dimethoxy-phenyl)-4-[4-(4-ethyl-piperazin-1-yl)-1-oxo-1,3-dihydro-isoindol-2-yl]-butyl}-amide], the IC50 in test [1] was determined as 245 nM; in test [2] (setting [4]), 913 nM. In addition, the Ki in test [3] is 49 nM.

On to `COc1ccc([C@@H](CCCNc2nccc(C(F)(F)F)n2)N2Cc3c(cccc3N3CCNCC3)C2=O)cc1OC` [Cpd 6, 2-[(1R)-1-(3,4-dimethoxy-phenyl)-4-(4-trifluoromethyl-pyrimidin-2-ylamino)-butyl]-4-piperazin-1-yl-2,3-dihydro-isoindol-1-one], for which the IC50 is 8 nM in test [1] and 536 nM in test [2] (setting [4]). For the same compound, in test [3], the inhibition constant Ki came to 120 nM.

For `CCN1CCN(c2cccc3c2CN([C@H](CCCN(C)S(=O)(=O)c2cn(C)c(C)n2)c2ccc(OC)c(OC)c2)C3=O)CC1` [Cpd 39, 1,2-dimethyl-1H-imidazole-4-sulfonic acid {(4R)-4-(3,4-dimethoxy-phenyl)-4-[4-(4-ethyl-piperazin-1-yl)-1-oxo-1,3-dihydro-isoindol-2-yl]-butyl}-methyl-amide], the values for the IC50 in test [1] and in test [2] (setting [4]) were 138 nM and 988 nM, respectively. Moreover, the affinity in test [3] corresponds to a Ki of 162 nM.

For the compound `CCN1CCN(c2cccc3c2CN([C@H](CCCNC(=O)c2cn[nH]c2)c2ccc(OC)c(OC)c2)C3=O)CC1` [Cpd 79, 1H-pyrazole-4-carboxylic acid {(4R)-4-(3,4-dimethoxy-phenyl)-4-[4-(4-ethyl-piperazin-1-yl)-1-oxo-1,3-dihydro-isoindol-2-yl]-butyl}-amide], the figures for the half-inhibitory concentration (IC50) in test [1] and in test [2] (setting [4]) were 6 nM and 133 nM, respectively. In test [3], this compound registered an inhibition constant Ki of 39 nM.

On to `COc1ccc([C@@H](CCCOc2ccccc2)N2Cc3c(cccc3N3CCN(Cc4ccccc4)CC3)C2=O)cc1OC` [Cpd 34, 4-(4-benzyl-piperazin-1-yl)-2-[(1R)-1-(3,4-dimethoxy-phenyl)-4-phenoxy-butyl]-2,3-dihydro-isoindol-1-one], for which the IC50 was found to be 105 nM in test [1] and 310 nM in test [2] (setting [4]). This compound came in with a Ki in test [3] of 32 nM.

On to `CCN(CC)CCC[C@H](c1ccc(OC)c(OC)c1)N1Cc2c(cccc2N2CCN(CC)CC2)C1=O` [Cpd 68, 2-[(1R)-4-diethylamino-1-(3,4-dimethoxy-phenyl)-butyl]-4-(4-ethyl-piperazin-1-yl)-2,3-dihydro-isoindol-1-one], for which the IC50 was found to be 178 nM in test [1] and 2040 nM in test [2] (setting [4]). In addition, the Ki in test [3] is above 300 nM.

In the case of `COc1ccc([C@@H](CCCNS(=O)(=O)c2cccs2)N2Cc3c(cccc3N3CCN(C(C)C)CC3)C2=O)cc1OC` [Cpd 65, thiophene-2-sulfonic acid {(4R)-4-(3,4-dimethoxy-phenyl)-4-[4-(4-isopropyl-piperazin-1-yl)-1-oxo-1,3-dihydro-isoindol-2-yl]-butyl}-amide], the figures for the IC50 in test [1] and in test [2] (setting [4]) were 3 nM and 53 nM, respectively. Also, the Ki in test [3] (setting [5]) came to 4 nM.

With `CCN1CCN(c2cccc3c2CN(C(c2ccc(OC)c(OC)c2)C2CCN(S(=O)(=O)c4cn(C)c(C)n4)CC2)C3=O)CC1` (stereo not drawn) [Cpd 44, 2-{(3,4-dimethoxy-phenyl)-[1-(1,2-dimethyl-1H-imidazole-4-sulfonyl)-piperidin-4-yl]-methyl}-4-(4-ethyl-piperazin-1-yl)-2,3-dihydro-isoindol-1-one], the IC50 in test [1] was found to be 7330 nM; in test [2] (setting [4]), 3060 nM. Also, the Ki in test [3] was above 300 nM.

With `CCN1CCN(c2cccc3c2CN([C@H](CCCNC(N)=O)c2ccc(OC)c(OC)c2)C3=O)CC1` [Cpd 64, {(4R)-4-(3,4-dimethoxy-phenyl)-4-[4-(4-ethyl-piperazin-1-yl)-1-oxo-1,3-dihydro-isoindol-2-yl]-butyl}-urea], the figures for the concentration for half-maximal inhibition (IC50) in test [1] and in test [2] (setting [4]) were 143 nM and 3660 nM, respectively. The compound also displayed a Ki in test [3] above 300 nM.

As for `COc1ccc([C@@H](CCCOCc2ccccc2)N2Cc3c(cccc3N3CCNCC3)C2=O)cc1OC` [Cpd 41, 2-[(1R)-4-benzyloxy-1-(3,4-dimethoxy-phenyl)-butyl]-4-piperazin-1-yl-2,3-dihydro-isoindol-1-one], the figures for the IC50 in test [1] and in test [2] (setting [4]) were 22 nM and 450 nM, respectively. In test [3], the inhibitory constant (Ki) is 165 nM.

As usually defined, the IC50 is the concentration that gives 50% inhibition. For orientation: Ki means the equilibrium dissociation constant of an inhibitor or competing ligand from its target.
